Data published in patent publication US8865672B2, “Prevention of tissue ischemia and related methods” (The United States of America, as represented by the …, priority 2006, dated 2014).

What was measured:
CD47 = assay: Western analysis of CD47 in human aortic VSMC; format: cell-based; settings: 48 hours
Procedure: Human aortic VSMC were plated onto 12-well culture plates (Nunc) at a density of 5×10^4 cells/well in SM-GM+2% FCS and cultured until approximately 90% confluent. A translation-blocking antisense morpholino oligonucleotide complementary to human and murine CD47 ([…]; SEQ ID NO: 21) and a five-base mismatch control (CGTgACAGcCAcGACCgACTGCgCA; SEQ ID NO: 22) were obtained from GeneTools (Philomath, Oreg.). Cultured cells were treated as per the manufacturer's recommendation with morpholinos (10 μM) and utilized within 48 hours of treatment.
Murine VSMC were plated in 12-well culture plates (5×10^4 cells/well) (Nunc) in growth medium and weaned over 48 h of additives and serum and then treated in basic medium with 0.1% BSA. Cells were washed twice with PBS and lysed in 1×SDS sample buffer containing 10 μg/mL leupeptin, 10 μg/mL aprotinin, 1 mM Na3VO4, and 40 mM NaF. Lysates prepared in the SDS sample buffer described above were electrophoresed in 4-12% BisTris NuPAGE gels and transferred to PVDF membranes prior to immunoblotting using a mouse monoclonal CD47 antibody, clone B6H12 (Lab Visions, Fremont, Calif.).

[1] = test system: murine aortic VSMC (WT, TSP1 null, CD47 null); assay: 3D collagen gel contraction assay, murine VSMC; format: cell-based, mouse; settings: for relaxation of pre-contracted VSMC by NO: TSP1 2.2 nM
Procedure: Type I collagen gel (3 mg/ml) with 10×M199 (Gibco, Grand Island, N.Y.) at a 10:1 ratio of collagen to medium was prepared, pH balanced with NaOH and seeded with either HAVSMC or VSMC harvested from aortic segments from C57B16 WT or TSP1 null mice (50,000 cells in 75 μl of gel/well) and aliquoted to 96-well plates (Nunc, Denmark). Plates were incubated for 12 h 37° C. and 5% CO2 allowing for gelation and cell spreading, gently released from the well walls and incubated in serum and additive deficient growth medium with 0.1% BSA in the presence of the indicated treatment agents for 10 h. Contraction was determined by measuring the diameter in perpendicular planes (x, y) of each disk, an average obtained and surface area calculated as (d/2)^2π. Experiments were performed in triplicate. Results represent the mean±SD of at least three separate experiments.
Collagen gel contraction assays were performed using murine derived VSMC (7.5×10^4 cells/gel) as described (Isenberg et al., Blood 2006; Example 2). Wells receiving TSP1 were pre-incubated with the indicated concentrations of agent overnight. Contraction was initiated with either 10% FCS or sphingosine 1-phosphate (S1P, 100 nM).

cGK-I = molecular target: T1, cGK-I (Homo sapiens, UniProt Q13976); assay: cGK in vitro kinase assay of platelet lysates; format: biochemical
T1 construct: endogenous in cells; host or cells: washed human platelets, treated intact, then lysed
T1 sequence (Q13976 1-686 isoform Q13976-2): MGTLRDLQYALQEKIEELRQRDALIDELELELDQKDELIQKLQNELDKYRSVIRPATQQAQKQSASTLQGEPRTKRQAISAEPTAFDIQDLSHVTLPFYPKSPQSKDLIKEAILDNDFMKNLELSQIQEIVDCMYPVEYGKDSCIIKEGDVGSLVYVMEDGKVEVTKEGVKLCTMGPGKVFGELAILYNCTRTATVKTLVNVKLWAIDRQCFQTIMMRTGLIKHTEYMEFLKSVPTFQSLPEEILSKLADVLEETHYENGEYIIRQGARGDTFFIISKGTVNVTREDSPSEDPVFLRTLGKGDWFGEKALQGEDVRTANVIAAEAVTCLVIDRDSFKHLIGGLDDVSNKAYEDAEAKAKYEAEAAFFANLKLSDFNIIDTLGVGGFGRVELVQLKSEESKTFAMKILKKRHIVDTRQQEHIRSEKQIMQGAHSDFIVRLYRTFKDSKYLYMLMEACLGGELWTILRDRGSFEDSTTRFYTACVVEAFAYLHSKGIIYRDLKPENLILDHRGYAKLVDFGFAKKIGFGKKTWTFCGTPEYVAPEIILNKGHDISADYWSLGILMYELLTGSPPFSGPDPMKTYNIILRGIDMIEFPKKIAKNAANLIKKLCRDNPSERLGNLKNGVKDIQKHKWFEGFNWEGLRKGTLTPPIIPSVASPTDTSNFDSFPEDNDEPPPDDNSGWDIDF
Procedure: Platelets were washed as described above and resuspended in Tyrode's buffer (3×10^8 platelets/mL). Platelets were preincubated with TSP1 (2.2 nM) or Rp-8-pCPT-cGMP for 15 minutes prior to treatment with 8-Br-cGMP (100 μM) or NO (DEA/NO 10 μM) for 2 minutes. Treatment was stopped by placing the platelets on ice. Immediately following treatment, platelets were pelleted by centrifugation at 13,000×g at 4° C. for 15 seconds and resuspended in a lysis buffer containing 10 mM HEPES (pH 7.4), 1 mM EDTA, 1 mM 3-Isobutyl-1-methylxanthine, 125 mM KCl, 1 mM phenylmethysulfonylfluoride, 1 μg/ml aprotinin, and 1 μg/ml leupeptin. Resuspended platelets were sonicated on ice 3 times for 10 seconds each before centrifugation at 13,000×g for 5 minutes at 4° C. 100 μg lysate from each sample was incubated at 25° C. for 20 minutes with kinase buffer (150 μM Arg-Lys-Arg-Ser-Arg-Ala-Glu (SEQ ID NO: 17) peptide substrate (Bachem, King of Prussia, Pa.)), 10 mM HEPES pH 7.4, 35 mM β-glycerophosphate, 4 mM MgCl2, 5 μM Rp-8 pCPT-cAMPS, 0.5 mM EDTA, […] [γ-32P]ATPS (Sigma-Aldrich, St. Louis, Mo.)). Kinase assay reactions were terminated by spotting 50 μL of reaction mixture onto nitrocellulose. Nitrocellulose spots were washed 5 times each with 100 μL of 0.5% phosphoric acid before analysis with a scintillation counter.

Row | Substance | CD47 protein (Western) (CD47) | relaxation of pre-contracted VSMC by NO ([1]; CD47 null VSMC) | contractile response to S1P ([1]; TSP1 null murine VSMC) | relaxation of pre-contracted VSMC by NO ([1]; wild type cells) | 32P-incorporation into cGK-I selective peptide (cGK-I; activation via sGC using DEA/NO in intact platelets) | 32P incorporation into cGK-I selective peptide (cGK-I; stimulated by 100 μM 8Br-cGMP, TSP1 2.2 nM)
1 | CGTCACAGGCAGGACCCACTGCCCA (all phosphorodiamidate morpholino (PMO)) [CD47 morpholino] | dose dependent decrease in CD47 protein |  |  |  |  | 
2 | TSP1: thrombospondin-1 prepared from human platelets |  | absent | increased the contractile response of TSP1 null cells to S1P | completely inhibited | prevented | inhibited 32P incorporation
